The record followed here is patent US11331299B2, “Medicinal use of serrulatane diterpenes” (The University of Sydney, priority 2016, dated 2022).

One experiment addresses T1, SP140 (h) bromodomain (Homo sapiens, UniProt Q13342).
T1 construct: SP140 (h) bromodomain
Kind of experiment: Epigenetic binding assay, Bromodomain.

A further experiment has as its target T2, ATAD2A (h) bromodomain (Homo sapiens, UniProt Q6PL18).
T2 construct: Bromodomain
T2 sequence (Q6PL18 980-1092 limits assumed): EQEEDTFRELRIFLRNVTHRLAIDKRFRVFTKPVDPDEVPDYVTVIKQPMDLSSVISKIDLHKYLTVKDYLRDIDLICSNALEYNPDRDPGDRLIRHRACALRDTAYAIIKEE
Kind of experiment: Epigenetic binding assay, Bromodomain. Conditions: Table 9, inhibition/concentration-response curve; read-out: IC50.

In experiment [1] the target is T3, KAT2A (GCN5L2) (h) bromodomain (Homo sapiens, UniProt Q92830).
T3 construct: Bromodomain
T3 sequence (Q92830 728-832 limits assumed): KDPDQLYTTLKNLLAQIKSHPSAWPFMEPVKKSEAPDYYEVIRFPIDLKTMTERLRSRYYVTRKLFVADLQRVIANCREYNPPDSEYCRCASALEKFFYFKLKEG
The experiment in a line: Epigenetic binding assay, Bromodomain. The following applies: Table 9, inhibition/concentration-response curve; read-out: IC50.

A further experiment deals with T4, TAF1(1) (h) bromodomain (Homo sapiens, UniProt P21675).
T4 construct: Bromodomain
T4 sequence (P21675 1397-1505 limits assumed): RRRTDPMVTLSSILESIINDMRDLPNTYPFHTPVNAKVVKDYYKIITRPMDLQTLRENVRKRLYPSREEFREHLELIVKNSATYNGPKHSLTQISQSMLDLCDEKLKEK
The experiment in a line: Epigenetic binding assay, Bromodomain. The following applies: Table 4; read-out: Reference IC50.

The next experiment deals with T5, TAF1(2)(h) bromodomain (Homo sapiens, UniProt P21675).
T5 construct: Bromodomain
T5 sequence (P21675 1519-1628 limits assumed): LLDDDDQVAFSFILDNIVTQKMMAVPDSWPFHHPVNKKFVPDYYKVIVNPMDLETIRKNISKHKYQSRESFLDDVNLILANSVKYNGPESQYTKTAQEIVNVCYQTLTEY
Kind of experiment: Epigenetic binding assay, Bromodomain. The following applies: Table 4; read-out: Reference IC50.

For a further experiment, the target named is T6, FALZ (h) bromodomain (Homo sapiens, UniProt Q12830).
T6 construct: Bromodomain; Eurofins CEREP (France), contract laboratory
Kind of experiment: Epigenetic binding assay, Bromodomain. The following applies: Table 4; read-out: Reference IC50.

The target in the next experiment is USP 10 (h) (Homo sapiens, UniProt Q14694). The experiment in a line: Epigenetic enzyme assay, Ubiquitin modifying enzymes. It is filed as biochemical. The following applies: Table 10; read-out: Reference IC50.
Chain of USP 10 (h) (Q14694 whole entry): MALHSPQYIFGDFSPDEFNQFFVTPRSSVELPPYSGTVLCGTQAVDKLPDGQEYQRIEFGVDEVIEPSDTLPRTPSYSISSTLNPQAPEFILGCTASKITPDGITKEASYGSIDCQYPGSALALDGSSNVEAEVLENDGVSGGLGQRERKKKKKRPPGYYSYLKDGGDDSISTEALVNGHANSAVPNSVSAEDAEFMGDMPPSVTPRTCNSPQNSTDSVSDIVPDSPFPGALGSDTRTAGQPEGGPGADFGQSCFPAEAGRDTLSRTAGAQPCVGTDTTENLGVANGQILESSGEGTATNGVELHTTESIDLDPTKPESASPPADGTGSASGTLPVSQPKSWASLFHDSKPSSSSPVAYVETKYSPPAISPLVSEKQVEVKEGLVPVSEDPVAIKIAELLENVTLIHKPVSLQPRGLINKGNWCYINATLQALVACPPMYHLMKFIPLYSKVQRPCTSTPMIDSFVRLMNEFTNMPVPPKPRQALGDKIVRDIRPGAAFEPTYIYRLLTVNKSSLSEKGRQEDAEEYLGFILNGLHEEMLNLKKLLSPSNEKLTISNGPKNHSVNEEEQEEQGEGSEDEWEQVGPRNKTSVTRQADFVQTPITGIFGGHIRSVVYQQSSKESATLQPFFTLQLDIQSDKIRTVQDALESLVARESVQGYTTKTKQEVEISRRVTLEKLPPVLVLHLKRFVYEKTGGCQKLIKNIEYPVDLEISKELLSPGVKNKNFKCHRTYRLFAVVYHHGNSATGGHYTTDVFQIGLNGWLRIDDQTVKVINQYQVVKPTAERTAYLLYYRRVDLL
Another experiment deals with USP 16 (h) (Homo sapiens, UniProt Q9Y5T5). The experiment is described as above. The experiment is classed as biochemical. Conditions: Table 10; read-out: Reference IC50.
Chain of USP 16 (h) (Q9Y5T5 whole entry): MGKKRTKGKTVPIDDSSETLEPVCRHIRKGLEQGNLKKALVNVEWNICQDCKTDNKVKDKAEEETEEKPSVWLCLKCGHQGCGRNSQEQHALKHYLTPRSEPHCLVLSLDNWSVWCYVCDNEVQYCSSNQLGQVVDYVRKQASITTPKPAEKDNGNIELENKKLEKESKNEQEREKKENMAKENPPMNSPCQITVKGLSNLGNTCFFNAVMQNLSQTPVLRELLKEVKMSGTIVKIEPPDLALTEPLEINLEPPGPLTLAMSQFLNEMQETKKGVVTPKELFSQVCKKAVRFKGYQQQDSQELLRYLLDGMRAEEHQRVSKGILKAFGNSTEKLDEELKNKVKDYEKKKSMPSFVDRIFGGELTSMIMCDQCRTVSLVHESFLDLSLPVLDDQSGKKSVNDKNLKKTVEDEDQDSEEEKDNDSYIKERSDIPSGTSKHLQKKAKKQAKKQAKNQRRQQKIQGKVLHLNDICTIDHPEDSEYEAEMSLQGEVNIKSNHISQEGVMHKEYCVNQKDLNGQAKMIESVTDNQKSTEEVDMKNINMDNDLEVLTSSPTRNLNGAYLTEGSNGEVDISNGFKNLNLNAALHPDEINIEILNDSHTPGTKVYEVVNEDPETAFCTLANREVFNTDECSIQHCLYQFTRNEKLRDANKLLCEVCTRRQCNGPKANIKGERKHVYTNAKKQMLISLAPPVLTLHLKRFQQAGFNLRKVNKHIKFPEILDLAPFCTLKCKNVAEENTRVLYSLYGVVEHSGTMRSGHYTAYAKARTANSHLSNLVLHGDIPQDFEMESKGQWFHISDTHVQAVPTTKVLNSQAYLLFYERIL
For a further experiment, the target named is T7, BRPF1-1 (h) bromodomain (Homo sapiens, UniProt P55201).
T7 construct: Bromodomain
T7 sequence (P55201 628-732 limits assumed): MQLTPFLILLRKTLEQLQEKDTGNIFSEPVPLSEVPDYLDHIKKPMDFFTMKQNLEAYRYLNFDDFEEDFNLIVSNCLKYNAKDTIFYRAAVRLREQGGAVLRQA
Kind of experiment: Epigenetic binding assay, Bromodomain. The following applies: Table 4; read-out: Reference IC50.

The target in experiment [2] is T8, sirtuin 2 (h) (inhibitor effect) (Homo sapiens, UniProt Q8IXJ6).
T8 sequence (Q8IXJ6 1-389): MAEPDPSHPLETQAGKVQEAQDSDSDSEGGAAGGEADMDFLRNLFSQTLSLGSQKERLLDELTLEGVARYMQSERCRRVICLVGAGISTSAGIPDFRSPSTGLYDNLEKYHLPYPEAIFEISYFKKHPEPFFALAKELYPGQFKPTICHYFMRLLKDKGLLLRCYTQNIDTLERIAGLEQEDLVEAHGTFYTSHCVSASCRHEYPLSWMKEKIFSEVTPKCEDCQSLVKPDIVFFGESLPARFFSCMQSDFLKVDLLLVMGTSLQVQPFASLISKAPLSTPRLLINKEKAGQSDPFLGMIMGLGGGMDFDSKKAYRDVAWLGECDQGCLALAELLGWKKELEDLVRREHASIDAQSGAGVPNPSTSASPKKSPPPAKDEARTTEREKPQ
The experiment in a line: Epigenetic enzyme assay, Sirtuins. The experiment is classed as biochemical. Conditions: Table 10; read-out: Reference IC50.

The next experiment deals with T9, NSD3/WHSC1L1 (h) (Homo sapiens, UniProt Q9BZ95).
T9 sequence (Q9BZ95 1-1437): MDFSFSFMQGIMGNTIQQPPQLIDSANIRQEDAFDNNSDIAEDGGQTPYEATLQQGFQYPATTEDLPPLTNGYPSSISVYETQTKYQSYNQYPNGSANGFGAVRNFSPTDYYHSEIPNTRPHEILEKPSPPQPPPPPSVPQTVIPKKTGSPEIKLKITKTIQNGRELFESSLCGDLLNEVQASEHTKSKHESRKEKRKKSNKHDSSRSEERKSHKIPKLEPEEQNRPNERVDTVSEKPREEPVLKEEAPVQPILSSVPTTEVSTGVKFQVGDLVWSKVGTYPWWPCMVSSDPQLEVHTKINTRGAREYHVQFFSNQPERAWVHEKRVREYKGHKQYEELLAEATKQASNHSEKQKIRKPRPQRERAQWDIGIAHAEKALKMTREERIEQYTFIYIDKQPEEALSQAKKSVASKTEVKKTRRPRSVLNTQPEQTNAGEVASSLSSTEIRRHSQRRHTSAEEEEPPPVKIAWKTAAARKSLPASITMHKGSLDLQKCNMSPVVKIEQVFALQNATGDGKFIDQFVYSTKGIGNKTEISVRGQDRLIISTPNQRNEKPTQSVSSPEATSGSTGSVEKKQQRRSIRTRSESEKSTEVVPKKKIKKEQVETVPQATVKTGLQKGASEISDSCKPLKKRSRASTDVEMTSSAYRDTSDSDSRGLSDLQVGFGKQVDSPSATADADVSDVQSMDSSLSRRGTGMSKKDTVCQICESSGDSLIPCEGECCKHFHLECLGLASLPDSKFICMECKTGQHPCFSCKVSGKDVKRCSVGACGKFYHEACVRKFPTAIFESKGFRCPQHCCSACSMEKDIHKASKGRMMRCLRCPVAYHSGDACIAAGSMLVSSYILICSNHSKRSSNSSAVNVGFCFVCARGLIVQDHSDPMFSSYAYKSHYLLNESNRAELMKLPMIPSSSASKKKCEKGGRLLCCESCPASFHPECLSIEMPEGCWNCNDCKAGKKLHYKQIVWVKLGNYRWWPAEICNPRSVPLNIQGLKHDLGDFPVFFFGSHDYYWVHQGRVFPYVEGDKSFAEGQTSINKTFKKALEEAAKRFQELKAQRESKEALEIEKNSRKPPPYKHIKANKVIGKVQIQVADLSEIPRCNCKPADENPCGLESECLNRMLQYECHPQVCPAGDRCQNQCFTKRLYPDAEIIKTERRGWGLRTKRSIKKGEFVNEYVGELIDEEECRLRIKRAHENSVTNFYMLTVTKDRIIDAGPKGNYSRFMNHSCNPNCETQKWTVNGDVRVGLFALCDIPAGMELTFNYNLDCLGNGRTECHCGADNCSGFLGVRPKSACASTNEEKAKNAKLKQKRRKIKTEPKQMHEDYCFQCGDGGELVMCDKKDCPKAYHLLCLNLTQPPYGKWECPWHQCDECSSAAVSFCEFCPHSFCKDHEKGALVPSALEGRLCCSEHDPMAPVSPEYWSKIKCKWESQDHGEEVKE
The experiment in a line: Epigenetic enzyme assay, Methyltransferases (MTs). It is filed as biochemical. Conditions: Table 10; read-out: Reference IC50.

A further experiment addresses T10, PHIP(2) (h) bromodomain (Homo sapiens, UniProt Q8WWQ0).
T10 construct: Bromodomain
The experiment in a line: Epigenetic binding assay, Bromodomain. Conditions: Table 4; read-out: Reference IC50.

A further experiment concerns the target T11, SETD8 (h) (Homo sapiens, UniProt Q9NQR1).
T11 sequence (Q9NQR1 1-393): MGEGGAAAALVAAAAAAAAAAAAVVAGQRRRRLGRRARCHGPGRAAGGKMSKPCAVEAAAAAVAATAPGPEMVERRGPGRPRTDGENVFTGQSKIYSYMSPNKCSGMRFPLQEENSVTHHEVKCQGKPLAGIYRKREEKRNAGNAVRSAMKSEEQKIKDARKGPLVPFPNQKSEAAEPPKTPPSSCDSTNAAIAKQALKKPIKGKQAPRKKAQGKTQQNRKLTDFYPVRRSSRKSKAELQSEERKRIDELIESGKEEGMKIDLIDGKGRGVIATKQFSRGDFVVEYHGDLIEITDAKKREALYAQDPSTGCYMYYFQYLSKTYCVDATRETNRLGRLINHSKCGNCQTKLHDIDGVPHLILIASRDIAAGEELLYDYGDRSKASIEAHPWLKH
Kind of experiment: Epigenetic enzyme assay, Methyltransferases (MTs). Conditions: Table 10; read-out: Reference IC50. The experiment is classed as biochemical.

The subject of the next experiment is CCD 841 CoN. The experiment in a line: OncoPanel normal cell proliferation assay (3-day). The experiment is classed as cell-based. The following applies: Homo sapiens, 72 h, colon epithelial, 3-day incubation.
For a further experiment, the system named is HMEC. Kind of experiment: OncoPanel normal cell proliferation assay (3-day). The experiment is classed as cell-based. The following applies: Homo sapiens, 72 h, HMEC, mammary epithelial, 3-day incubation.
Another experiment concerns HREC. The experiment in a line: OncoPanel normal cell proliferation assay (3-day). The experiment is classed as cell-based. Conditions: 72 h, renal mixed epithelial, 3-day incubation.
The next experiment relates to Wi38. The experiment in a line: OncoPanel normal cell proliferation assay (3-day). Conditions: Homo sapiens, WI-38, 72 h, Wi38, lung fibroblast, 3-day incubation. It is filed as cell-based.
The next experiment addresses T12, ATAD2B (h) bromodomain (Homo sapiens, UniProt Q9ULI0).
T12 construct: ATAD2B bromodomain; host or cells: E. coli
T12 sequence (Q9ULI0 951-1066 limits assumed): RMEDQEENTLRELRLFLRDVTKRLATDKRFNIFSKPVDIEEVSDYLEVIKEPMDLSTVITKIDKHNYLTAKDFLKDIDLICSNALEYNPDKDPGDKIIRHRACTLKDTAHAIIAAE
The experiment in a line: Epigenetic binding assay, Bromodomain. The following applies: Table 4; read-out: Reference IC50.

Another experiment concerns the target T13, PB1(4) (h) bromodomain (Homo sapiens, UniProt Q86U86).
T13 construct: Bromodomain
The experiment in a line: Epigenetic binding assay, Bromodomain. The following applies: Table 4; read-out: Reference IC50.

Structures can show the parent of a compound that is named as a salt. Where two headings read alike, the source gives them in different places.

T1 sequence (Q13342 754-857 limits assumed): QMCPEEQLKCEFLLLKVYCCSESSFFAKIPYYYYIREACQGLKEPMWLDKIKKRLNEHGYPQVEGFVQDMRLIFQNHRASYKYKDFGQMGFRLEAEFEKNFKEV
T13 sequence (Q86U86 518-625 limits assumed): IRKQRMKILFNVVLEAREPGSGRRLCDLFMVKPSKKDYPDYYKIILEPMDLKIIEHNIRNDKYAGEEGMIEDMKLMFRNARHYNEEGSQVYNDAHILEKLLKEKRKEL

For the compound `Cc1cc(/N=N/c2cc(S(=O)(=O)O)c(C)cc2C)c(N)cc1O` [Ischemin, reference compound], the IC50 at SP140 (h) bromodomain (Table 4, read-out: Reference IC50) worked out at 86 µM; at SP140 (h) bromodomain (Table 9, inhibition/concentration-response curve, read-out: IC50) it was 11 µM; at ATAD2A (h) bromodomain, 5.2 µM.
With `CCCOc1ccn2c(C(C)=O)cc(-c3ccccc3S(C)(=O)=O)c2c1` [GSK2801, reference compound], the half-inhibitory concentration (IC50) in experiment [1] was found to be 10 µM; on TAF1(1) (h) bromodomain, 4.4 µM; at TAF1(2)(h) bromodomain it was 10 µM.
In the case of `CCC(=O)N1CCOc2c(cc(-c3ccc(OC)c(OC)c3)cc2OC[C@H]2CCCN(C)C2)C1` [I-CBP112, reference compound], at FALZ (h) bromodomain, the IC50 came to 24.5 µM.
Take `CN1C(=O)C=CC1=O` [N-Methylmaleimide, reference compound]: on USP 10 (h), the concentration for half-maximal inhibition (IC50) was 1000 µM.
As for `NC(=O)CI` [Iodoacetamide, reference compound], the 50% inhibitory concentration (IC50) on USP 16 (h) amounted to 3.5 µM.
With `CCOC(=O)Nc1cc(-c2ccc(C)c(NS(C)(=O)=O)c2)nn2c(C)nnc12` [Bromosporine, reference compound], at BRPF1-1 (h) bromodomain, the IC50 is 0.026 µM.
As to `Cc1ccc(C(=O)Nc2ccc(S(=O)(=O)O)c3cc(S(=O)(=O)O)cc(S(=O)(=O)O)c23)cc1NC(=O)c1cccc(NC(=O)Nc2cccc(C(=O)Nc3cc(C(=O)Nc4ccc(S(=O)(=O)O)c5cc(S(=O)(=O)O)cc(S(=O)(=O)O)c45)ccc3C)c2)c1` [suramin, reference compound], the IC50 was 21 µM in [2] and 1.5 µM at NSD3/WHSC1L1 (h).
In the case of `COc1ccc(CCc2nc3cc(-c4c(C)noc4C)ccc3n2C[C@H](C)N2CCOCC2)cc1Cl` [SGC-CBP30, reference compound], at PHIP(2) (h) bromodomain, the IC50 worked out at 0.13 µM.
Turning to `O=C([O-])c1ccccc1-c1c2cc(Br)c(=O)cc-2oc2[c]([Hg+])c([O-])c(Br)cc12.[Na+].[Na+].[OH-]` [mercurochrome, reference compound], the IC50 at SETD8 (h) was 2.4 µM.
Regarding `N#CC(C#N)=NNc1cccc(Cl)c1` [Carbonyl cyanide 3-chlorophenylhydrazone], the concentration giving a half-maximal response (EC50) with CCD 841 CoN (read-out: Cell Count EC50) was 10 µM; in the experiment on HMEC (read-out: Cell Count EC50), above 10 µM; in the experiment on HREC (read-out: Cell Count EC50) it was 0.553 µM; in the experiment on Wi38 (read-out: Cell Count EC50), 8.84 µM. Also, the 50% growth inhibitory concentration (GI50) came out at 6.21 µM with CCD 841 CoN (read-out: Cell Count GI50), 0.175 µM with HMEC (read-out: Cell Count GI50), 0.308 µM with HREC (read-out: Cell Count GI50) and 6.15 µM with Wi38 (read-out: Cell Count GI50). Also, the 50% inhibitory concentration (IC50) is 10 µM with CCD 841 CoN (read-out: Cell Count IC50), above 10 µM in the experiment on HMEC (read-out: Cell Count IC50), 1.52 µM with HREC (read-out: Cell Count IC50) and 8.84 µM in the experiment with Wi38 (read-out: Cell Count IC50).
In the case of `Cc1cc(/N=N/c2cc(S(=O)(=O)O)c(C)cc2C)c(N)cc1O` [Ischemin sodium salt, reference compound], the figures for the 50% inhibitory concentration (IC50) on ATAD2B (h) bromodomain and at PB1(4) (h) bromodomain were 76.6 µM and 6.8 µM, respectively.

By IC50 is commonly meant the concentration that inhibits the measured activity by half. Broadly, the EC50 is the concentration at which the effect is half-maximal. By GI50 is commonly meant the concentration at which growth is held to half of that of the control.
